Series [1] concerns HaCaT cells (human keratinocytes). Kind of series: Resazurin cell viability assay, non-malignant keratinocytes. It is filed as cell-based. Particulars: resazurin. As to the method:
(§1) The cytotoxicity of complexes 2 was evaluated in vitro by determining the half inhibitory concentrations (IC50) against four human cell lines: wild-type BRAF melanoma (MeWo), lung adenocarcinoma (A549), bladder cancer (T24), and non-cancerous skin keratinocytes (HaCaT). The IC50 values were calculated from cell viability values obtained after 72 h of exposure of the drug to cells using the resazurin assay. The viability results, summarized in Table 1 (as μM concentrations) and illustrated in Figure 4, also include the values of the selectivity index (SI). The SI was calculated by dividing the IC50 value in the non-cancerous cells by that in the cancer cells. The higher the SI value, the higher the selectivity of the compound against cancer cells. This parameter also allows for a comparison of the selectivity of the investigated compound with the selectivity of the standard anticancer drug. For comparison, the cytotoxicity of two clinical anticancer drugs, carboplatin and gemcitabine, as well as imidazolium dicarboxylate precursor ligands (HL^R, 1) was evaluated under identical experimental conditions (see viability graphs in Figure 4 and Figure S7). […] Two noteworthy observations can be drawn from Table 1. […] Carboplatin is used for the treatment of ovarian cancer, lung cancer, bladder cancer, and head and neck cancer. Second, these zinc-based complexes were more cytotoxic to cancer cells than to non-malignant HaCaT cells, underscoring their potential therapeutic selectivity.
(§2) HaCaT cells (human keratinocytes) A549 (human lung adenocarcinoma), MeWo (human melanoma), and T24 (human urinary bladder carcinoma) were purchased from Cell Lines Service (CLS). The cells were maintained in Dulbecco’s Modified Eagle Medium (DMEM) supplemented with 10% fetal bovine serum and 1% penicillin/streptomycin. All cell lines were cultured at 37 °C and 5% CO2 with saturating humidity.
(§3) The resazurin assay is a commonly used colorimetric/fluorescent method to assess cell viability. This approach is based on the ability of living cells to convert the blue dye resazurin into the pink soluble resorufin product. The number of viable cells is directly correlated with the amount of resorufin generated. Between 3000 and 6000 cells per well were seeded in 96-well plates and allowed to grow for 24 h. […] The compounds were dissolved in sterile water to prepare a stock solution. Working solutions were obtained by serial dilution in the culture medium and were used immediately to treat the cells. Following this treatment period, the cells were rinsed once with phosphate buffered saline (PBS), and 150 μL of resazurin solution (20 µg/mL in medium) was added to each well. The plates were then incubated for 4–5 h at 37 °C with 5% CO2. Finally, absorbance was measured at 540 and 620 nm using a multiwell plate spectrophotometer (Imark Bio Rad Laboratories Inc., Hercules, CA, USA). The results were reported as percentages of cell viability compared to untreated controls. All data represent the mean ± standard error of the mean (SEM) of at least three independent experiments. The selectivity index (SI) values for each cancer cell line were determined by calculating the ratio of the IC50 value in the non-malignant HaCaT cell line to the IC50 value in the corresponding cancer cell line, based on data from each independent experiment.

Series [2] relates to A549 (human lung adenocarcinoma). As to the kind of experiment: Resazurin cell viability assay, lung adenocarcinoma. It is filed as cell-based. Particulars: for IC50: resazurin. How it is done:
as §1, §2, §3

The subject of a further series is MeWo (human melanoma). Kind of series: Resazurin cell viability assay, melanoma. It is filed as cell-based. Particulars: for IC50: resazurin; for Selectivity Index MeWo: IC50 HaCaT / IC50 MeWo. As to the method: as §1, with “The IC50 values were calculated from cell viability values obtained after 72 h of exposure of the drug to cells using the resazurin assay.” left out
as §2, §3

Series [3] relates to T24 (human urinary bladder carcinoma). Kind of series: Resazurin cell viability assay, bladder cancer. Particulars: for IC50: resazurin. It is filed as cell-based. As to the method: as §1, with “The IC50 values were calculated from cell viability values obtained after 72 h of exposure of the drug to cells using the resazurin assay.” left out
as §2, §3

The nature of series [4]: Resazurin cell viability assay, non-malignant keratinocytes. It is filed as cell-based, human. Particulars: human, HaCaT keratinocytes (non-malignant); HaCaT, highest concentrations tested, 72 h (Figure 4); read-out: viability of non-malignant cells. As to the method: as §1, §2, §3
Where [5] appears, read: 96 h, mean ± SEM (Table S3), read-out: IC50 HaCaT (Non-malignant keratinocyte).
The mark [6] stands for this setting: IC50 HaCaT / IC50 A549, 72 h, mean ± SEM.
[7] abbreviates: IC50 HaCaT / IC50 A549, 96 h, mean ± SEM (Table S3).
The mark [8] stands for this setting: IC50 HaCaT / IC50 T24, 72 h, mean ± SEM.
Setting [9] is: Homo sapiens, HaCaT, 96 h, mean ± SEM (Table S3), read-out: IC50 HaCaT (Non-malignant keratinocyte).
[10] abbreviates: Homo sapiens, A549, 96 h, mean ± SEM (Table S3).
Where [11] appears, read: Homo sapiens, MeWo, 96 h, mean ± SEM (Table S3).
The mark [12] stands for this setting: Homo sapiens, 96 h, mean ± SEM (Table S3).
The mark [13] stands for this setting: IC50 HaCaT / IC50 T24, 96 h, mean ± SEM (Table S3).

Read-outs that look alike come from different tables or passages of the source.

In the case of `N.N.O=C([O-])C1(C(=O)[O-])CCC1.[Pt+2]` [Carboplatin], the IC50 in series [1] (72 h, mean ± SEM, monomer molecular weight used, read-out: IC50 HaCaT (Non-Malignant Keratinocyte)) turned out to be 35900 ± 3800 nM; in series [1] (setting [5]), 11400 ± 1000 nM; in series [2] (72 h, mean ± SEM), 42900 ± 1400 nM; in series [2] (96 h, mean ± SEM (Table S3)), 21100 ± 4000 nM; in the series with MeWo (human melanoma) (72 h, mean ± SEM) it was 100000 ± 17400 nM; with MeWo (human melanoma) (96 h, mean ± SEM (Table S3)), 23000 ± 5500 nM. Moreover, the half-maximal inhibitory concentration (IC50) in series [3] (72 h, mean ± SEM) was 22100 ± 2600 nM; in series [3] (96 h, mean ± SEM (Table S3)) it was 7300 ± 1100 nM. For the same compound, the “Selectivity Index A549” value in series [2] (setting [6]) is reported as 0.8 ± 0.1; in series [2] (setting [7]), 0.6 ± 0.2. For the same compound, the “Selectivity Index MeWo” value is recorded as 0.4 ± 0.0 in the series with MeWo (human melanoma) (72 h, mean ± SEM) and 0.6 ± 0.2 with MeWo (human melanoma) (96 h, mean ± SEM (Table S3)). In addition, in series [3] (setting [8]), the “Selectivity Index T24” value is reported as 1.7 ± 0.2.

Take `O=c1[nH]cc(F)c(=O)[nH]1` [5-Fluorouracil]: the IC50 is 400 nM in series [1] (setting [9]), 1900 ± 700 nM in series [2] (setting [10]), 1300 nM with MeWo (human melanoma) (setting [11]) and 6300 ± 600 nM in series [3] (setting [12]). The “Selectivity Index A549” value in series [2] (setting [7]) is listed as 0.3 ± 0.1. Moreover, the “Selectivity Index MeWo” value in the series with MeWo (human melanoma) (96 h, mean ± SEM (Table S3)) is reported as 0.3 ± 0.0. For the same compound, the “Selectivity Index T24” value in series [3] (setting [13]) is reported as 0.1 ± 0.0.

In the case of `N.N.[Cl][Pt][Cl]` [Cisplatin], the IC50 in series [1] (setting [5]) was 2200 ± 500 nM; in series [2] (96 h, mean ± SEM (Table S3)), 3800 ± 100 nM; in the series on MeWo (human melanoma) (96 h, mean ± SEM (Table S3)), 2200 ± 600 nM; in series [3] (96 h, mean ± SEM (Table S3)) it was 1600 ± 400 nM. Moreover, the “Selectivity Index A549” value in series [2] (setting [7]) is 0.6 ± 0.1. Also, the “Selectivity Index MeWo” value in the series with MeWo (human melanoma) (96 h, mean ± SEM (Table S3)) is 1.0 ± 0.0. In addition, the “Selectivity Index T24” value in series [3] (setting [13]) is 1.3 ± 0.0.

With `CC(=O)O[C@H]1C(=O)[C@@]2(C)[C@H]([C@H](OC(=O)c3ccccc3)[C@]3(O)C[C@H](OC(=O)[C@H](O)[C@@H](NC(=O)c4ccccc4)c4ccccc4)C(C)=C1C3(C)C)[C@]1(OC(C)=O)CO[C@@H]1C[C@@H]2O` [Paclitaxel], the IC50 in series [1] (setting [9]) was found to be 0.3 nM; in series [2] (setting [10]), 3.5 ± 0.9 nM; in the series on MeWo (human melanoma) (setting [11]), 0.7 nM; in series [3] (setting [12]), 1.4 ± 0.3 nM. The “Selectivity Index A549” value in series [2] (setting [7]) stood at 0.1 ± 0.0. Besides, the “Selectivity Index MeWo” value in the series on MeWo (human melanoma) (96 h, mean ± SEM (Table S3)) was found to be 0.5 ± 0.0. Also, in series [3] (setting [13]), the “Selectivity Index T24” value is listed as 0.3 ± 0.1.

`Nc1ccn([C@@H]2O[C@H](CO)[C@@H](O)C2(F)F)c(=O)n1` [Gemcitabine]: in series [4], the viability at 72 h is 13%. For the same compound, the IC50 in series [1] (Homo sapiens, HaCaT, 72 h, mean ± SEM, read-out: IC50 HaCaT (Non-Malignant Keratinocyte)) stood at 22.1 ± 3.1 nM; in series [1] (setting [9]), 10.6 ± 4.3 nM; in series [2] (Homo sapiens, A549, 72 h, mean ± SEM), 5.6 ± 0.1 nM; in series [2] (setting [10]), 1.9 ± 1.5 nM; in the series on MeWo (human melanoma) (Homo sapiens, MeWo, 72 h, mean ± SEM) it was 7.3 ± 0.7 nM; in the series on MeWo (human melanoma) (setting [11]), 1.9 ± 1.5 nM. The IC50 was 2.3 ± 0.3 nM in series [3] (Homo sapiens, 72 h, mean ± SEM) and 1.7 ± 1.5 nM in series [3] (setting [12]). Besides, the “Selectivity Index A549” value in series [2] (setting [6]) turned out to be 4.0 ± 0.5; in series [2] (setting [7]) it was 5.1 ± 0.3. For the same compound, the “Selectivity Index MeWo” value amounted to 3.3 ± 0.8 in the series on MeWo (human melanoma) (72 h, mean ± SEM) and 5.1 ± 0.2 in the series with MeWo (human melanoma) (96 h, mean ± SEM (Table S3)). For the same compound, in the series with MeWo (human melanoma) (MeWo, highest concentrations tested, 72 h (Figure 4)), the “cell viability of melanoma cells” value is not below 35%. The “Selectivity Index T24” value is recorded as 9.3 ± 0.4 in series [3] (setting [8]) and 6.5 ± 1.4 in series [3] (setting [13]).

With `COc1cccc2c1C(=O)c1c(O)c3c(c(O)c1C2=O)C[C@@](O)(C(=O)CO)C[C@@H]3O[C@H]1C[C@H](N)[C@H](O)[C@H](C)O1` [Doxorubicin], the IC50 in series [1] (setting [9]) turned out to be 8.1 nM; in series [2] (setting [10]), 38.4 ± 6.6 nM; in the series with MeWo (human melanoma) (setting [11]), 15.3 ± 3.6 nM; in series [3] (setting [12]) it was 29.8 ± 2 nM. Moreover, in series [2] (setting [7]), the “Selectivity Index A549” value came out at 0.2 ± 0.0. In addition, the “Selectivity Index MeWo” value in the series with MeWo (human melanoma) (96 h, mean ± SEM (Table S3)) came to 0.6 ± 0.1. Besides, the “Selectivity Index T24” value in series [3] (setting [13]) turned out to be 0.3 ± 0.0.

With `CCN(CC)CCNC(=O)c1c(C)[nH]c(/C=C2\C(=O)Nc3ccc(F)cc32)c1C` [Sunitinib], the concentration for half-maximal inhibition (IC50) in series [1] (setting [9]) stood at 1000 ± 100 nM; in series [2] (setting [10]), 1500 ± 700 nM; in the series on MeWo (human melanoma) (setting [11]) it was 900 ± 400 nM; in series [3] (setting [12]), 1900 ± 1100 nM. Further, the “Selectivity Index A549” value in series [2] (setting [7]) amounted to 1.2 ± 0.6. Further, the “Selectivity Index MeWo” value in the series with MeWo (human melanoma) (96 h, mean ± SEM (Table S3)) amounted to 1.5 ± 0.5. Besides, in series [3] (setting [13]), the “Selectivity Index T24” value is reported as 1.5 ± 0.8.

For the origin of these results see publication PMC11989707, “Synthesis, Characterization, and Preliminary In Vitro Anticancer Activity of Zinc Complexes Containing Amino Acid-Derived Imidazolium-Based Dicarboxylate Ligands” (International Journal of Molecular Sciences, 2025).
